The target in series [1] is T1, B16F10 cellular tyrosinase (Mus musculus, UniProt P11344).
T1 construct: host or cells: B16F10 cells
T1 sequence (P11344 19-533): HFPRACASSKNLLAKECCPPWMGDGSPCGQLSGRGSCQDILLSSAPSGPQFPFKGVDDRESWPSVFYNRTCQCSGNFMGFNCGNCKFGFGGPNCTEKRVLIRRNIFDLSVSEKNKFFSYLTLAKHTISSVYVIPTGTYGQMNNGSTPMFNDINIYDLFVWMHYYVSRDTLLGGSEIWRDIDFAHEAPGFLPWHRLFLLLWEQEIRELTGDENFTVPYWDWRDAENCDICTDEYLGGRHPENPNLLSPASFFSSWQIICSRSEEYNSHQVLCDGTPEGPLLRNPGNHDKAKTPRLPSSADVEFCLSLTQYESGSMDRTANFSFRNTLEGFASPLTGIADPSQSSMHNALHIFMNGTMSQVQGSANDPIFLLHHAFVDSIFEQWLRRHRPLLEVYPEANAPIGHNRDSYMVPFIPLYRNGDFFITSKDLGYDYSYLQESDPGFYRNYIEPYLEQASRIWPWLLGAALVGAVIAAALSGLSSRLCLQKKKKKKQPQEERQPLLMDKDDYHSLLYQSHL
The series is described as follows: In situ cellular tyrosinase activity assay using L-dopa staining. The conditions noted are these: 72 h; for effect on stimulator-raised in situ intracellular tyrosinase activity (L-dopa staining): analogs 5, 10, 20 µM, kojic acid 20 µM. Format: cell-based, murine. The procedure: Because tyrosinase plays a critical role in melanogenesis, in situ intracellular tyrosinase activity was measured. The in situ intracellular tyrosinase activity was evaluated in B16F10 cells following a previously reported procedure. Stimulators (α-MSH plus IBMX) were exposed to cells to raise tyrosinase activity levels, and analogs 1, 3, and 5 were treated at 20, 10, and 5 µM for 72 h. After fixation and permeabilization using paraformaldehyde and Triton X-100, the cells were stained with L-dopa.
A 24-well plate containing 1 × 10^3 B16F10 cells/well was cultivated for 24 h under conditions identical to those of the cell culture. […] The cells were then cultivated under conditions identical to those of the cell culture for 72 h. Cultivated cells were fixed for 40 min with paraformaldehyde (4%), washed 2 times with PBS, and permeabilized with Triton X-100 (0.1%) for 2 min. After washing 2 times with PBS, the cells in the 24-well plate were stained with a 2 mM L-dopa aqueous solution (500 µL/well) for 2 h at 37 °C. Staining was photographed and analyzed utilizing a camera connected to a microscope (Motic, Hong Kong).

The target of series [2] is mushroom tyrosinase (Agaricus bisporus, UniProt C7FF04). Nature of the series: Kinetic study of mushroom tyrosinase inhibition (Lineweaver–Burk and Dixon plots). The format is biochemical. The conditions noted are these: for type of tyrosinase inhibition (Lineweaver–Burk plots): substrate L-dopa 0.5–16 mM. The procedure: The initial rate of dopachrome generation was examined at various BMTTZD analog concentrations (0, 1.5, 3, and 6 µM for analog 1; 0, 2, 4, and 8 µM for analogs 2 and 5; and 0, 0.05, 0.1, and 0.2 µM for 3) with 0.5, 1, 2, 4, 8, or 16 mM L-dopa as substrates using mushroom tyrosinase. Plotting the reciprocal of the dopachrome formation rate against the inverse of the L-dopa concentration produced Lineweaver–Burk plots (Figure 2). Each Lineweaver–Burk plot created four straight lines with different slopes. For analogs 1 and 3, the four straight lines met at a point on the y-axis, whereas for analogs 2 and 5, the four straight lines converged at a point in the second quadrant.
The Dixon plots produced lines that met in the second quadrant. The x-coordinate of the convergence position represents the inhibition constant (Ki) of the ligand.
Lineweaver–Burk (L-B) plots were acquired for the kinetic analysis of analogs against mushroom tyrosinase as previously described. In brief, 10 µL of a solution of DMSO and BMTTZD analogs 1–3 or 5 (final concentrations: 0, 1.5, 3, and 6 µM for analog 1; 0, 2, 4, and 8 µM for analogs 2 and 5; and 0, 0.05, 0.1, and 0.2 µM for analog 3) in each well of a 96-well plate was mixed with 20 µL of aqueous mushroom tyrosinase solution (200 units/mL) and 170 µL of an aqueous substrate mixture (various concentrations of L-dopa (final concentrations: 16, 8, 4, 2, 1 and 0.5 mM) and 17.2 mM sodium phosphate buffer (pH 6.5)). During incubation (15 min at 37 °C), the increase in the well absorbance (ΔOD475/min) was calculated at 1 min intervals utilizing a VersaMax® reader.

Series [3] deals with B16F10 cells. Nature of the series: Cell cytotoxicity test (EZ-Cytox). The format is cell-based, murine. As to conditions: 2.5–20 µM, 48 and 72 h. As to the method:
Because analogs 1–3 and 5 exerted potent mushroom tyrosinase inhibitory activities, their effects on anti-melanogenic and cellular tyrosinase activities were evaluated in B16F10 murine cells. Prior to examining their cellular activity, their cell viabilities were investigated. Cell viability was evaluated at 48 and 72 h after treatment with five different concentrations of analogs.
The effect on B16F10 cytotoxicity was assessed following a previously described method. Cells (1 × 10^4 cells/well of a 96-well plate) were cultivated for 24 h with 5% CO2 at 37 °C. The cells were exposed to the BMTTZD analogs (test concentrations: 20, 10, 5, 2.5, and 0 µM) and cultivated with 5% CO2 at 37 °C for 72 h. An EZ-Cytox solution (10 µL; EZ-500, DoGenBio, Seoul, Republic of Korea) was exposed to each well, and the plate was cultivated for 2 h. Cell viability was calculated from the well absorbance measured at 450 nm utilizing a reader (VersaMax®).

In series [4] the test system is B16F10 cells. The series is described as follows: Melanin content assay in B16F10 cells. The format is cell-based, murine. The conditions noted are these: 72 h; for effect on intracellular melanin contents enhanced by IBMX plus α-MSH: 5, 10, 20 µM. As to the method:
We examined whether the ability of analogs 1, 3, and 5 to inhibit intracellular tyrosinase activity could affect intracellular melanin levels. B16F10 cells were utilized as mammalian cells. IBMX and α-MSH were used at 200 µM and 1 µM, respectively, to increase melanin biosynthesis. […] For the intracellular melanin content determination, the absorbance at 405 nm was evaluated after 72 h of incubation.
The effect of BMTTZD analogs on melanin biosynthesis was investigated following a previously described method. A 6-well microplate containing 1 × 10^5 B16F10 cells/well was cultivated for 23 h under conditions identical to those of the cell culture. […] After exposure to IBMX and α-MSH, B16F10 cells were cultivated for 72 h at 37 °C. The cells were rinsed 2 times with PBS, treated with 1N-NaOH aqueous solution (100 µL), and cultivated at 60 °C for 1 h. The lysates were moved to a microplate. At 405 nm, the well absorbance was measured utilizing a VersaMax® reader. Each experiment was carried out three times independently.

Series [5] deals with mushroom tyrosinase. The series is described as follows: Mushroom tyrosinase inhibition assay (dopachrome, 475 nm). As to conditions: for IC50: mushroom tyrosinase. Format: biochemical. As to the method:
The ability of the BMTTZD analogs to inhibit mushroom tyrosinase was evaluated in the presence of L-dopa and L-tyrosine as previously described.

In series [6] the target is T1, B16F10 cellular tyrosinase. The series is described as follows: Cellular tyrosinase activity assay in B16F10 cells stimulated with IBMX plus α-MSH. The format is cell-based, murine. The conditions noted are these: 72 h; for effect on stimulator-induced cellular tyrosinase activity: 5, 10, 20 µM, IBMX plus α-MSH. As to the method: Analogs 1, 3, and 5 were exposed to B16F10 cells at various concentrations (20, 10, 5, and 0 µM) before exposure to IBMX (200 µM; 3-isobutyl-1-methylxanthine) and α-MSH (1 µM; α-melanocyte-stimulating hormone). After incubation (72 h), B16F10 cellular tyrosinase activity was determined. […] It was examined whether the cellular tyrosinase inhibition of the BMTTZD analogs could influence B16F10 cellular melanin contents.
Effects on B16F10 tyrosinase inhibition were evaluated as previously described. A 6-well plate containing 1 × 10^5 B16F10 cells/well was cultivated for 23 h under conditions identical to those of the cell culture. […] The cells were cultivated for 72 h. After washing 2 times with PBS, the cells were lysed in a 100 µL lysis buffer, including phenylmethylsulfonyl fluoride (5 µL; 1 mM), Triton X-100 (5 µL; 1%), and phosphate buffer (90 µL; 50 mM (pH 6.5)). After 30 min incubation at −80 °C, the cell lysates were centrifuged at 4 °C for 30 min. The supernatants (80 µL) of the lysates were moved to each well of a microplate and mixed with 20 µL 10 mM L-dopa.

A short description of series [7]: DPPH radical scavenging activity assay. The conditions noted are these: 500 µM. As to the method: First, the ability of BMTTZD analogs 1–8 to scavenge DPPH radicals was examined using L-ascorbic acid (vitamin C; positive control). All samples were tested at 500 µM.
The ability of the BMTTZD analogs to scavenge DPPH radicals was evaluated as previously reported. To each well of a 96-well plate containing analogs 1–8 (5 mM in […]; 20 µL) was added a DPPH solution (0.2 mM in methanol; 180 µL). The mixture was kept in a place without light for 30 min at 25°C to generate DPPH radicals. The well absorbance at 517 nm was measured utilizing a VersaMax® reader. The ability of the analogs to remove DPPH radicals was compared to that of vitamin C.
(The DPPH test is a chemical assay of radical scavenging.)

Where [8] appears, read: substrate L-dopa, read-out: IC50 (Mean ± SEM, µM) L-Dopa.
Where [9] appears, read: substrate L-tyrosine, read-out: IC50 (Mean ± SEM, µM) L-Tyrosine.
The mark [10] stands for this setting: analog at highest concentration tested (20 µM).

Like-named read-outs stand apart in the source and are kept apart here.

Chain of mushroom tyrosinase (Agaricus bisporus, UniProt C7FF04) (C7FF04 1-392): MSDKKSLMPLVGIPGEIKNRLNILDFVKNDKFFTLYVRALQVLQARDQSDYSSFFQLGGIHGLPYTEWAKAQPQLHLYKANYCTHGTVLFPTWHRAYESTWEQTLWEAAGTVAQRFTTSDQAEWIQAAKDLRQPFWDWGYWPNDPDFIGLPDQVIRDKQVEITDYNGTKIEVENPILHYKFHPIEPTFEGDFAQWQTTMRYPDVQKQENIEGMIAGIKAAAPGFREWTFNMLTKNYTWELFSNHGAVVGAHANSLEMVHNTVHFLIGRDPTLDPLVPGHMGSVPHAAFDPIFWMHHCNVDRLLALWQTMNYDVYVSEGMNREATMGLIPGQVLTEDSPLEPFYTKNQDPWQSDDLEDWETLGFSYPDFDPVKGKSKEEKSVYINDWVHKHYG

Take `CN1C(=O)/C(=C/c2ccc(O)cc2)SC1=S` [Analog 1, (Z)-5-(4-Hydroxybenzylidene)-3-methyl-2-thioxothiazolidin-4-one]: the “in situ intracellular tyrosinase inhibition compared with kojic acid” value in series [1] (20 µM) was “weaker intracellular tyrosinase inhibition efficacy than kojic acid”. Further, in series [1], the “effect on stimulator-raised in situ intracellular tyrosinase activity (L-dopa staining)” value is listed as “concentration-dependently reduced the stimulator-enhanced intracellular tyrosinase inhibition”. At mushroom tyrosinase [2], the “type of tyrosinase inhibition (Lineweaver–Burk plots)” value is listed as “competitive inhibitors”. Besides, at mushroom tyrosinase [2] (substrate L-dopa, read-out: inhibition constant (Ki) from Dixon plots), the Ki (usually a dissociation constant, usually derived from enzyme kinetics or from competition with a known ligand) was 6.2 µM. The “cytotoxicity (cell viability)” value with B16F10 cells [3] is given as “did not exhibit cytotoxicity at ≤20 µM”. Besides, the “intracellular melanin contents compared with kojic acid” value with B16F10 cells [4] (20 µM) is recorded as “levels similar to those in treatment with kojic acid”. For the same compound, in the series on B16F10 cells [4], the “effect on intracellular melanin contents enhanced by IBMX plus α-MSH” value was “significantly reduced the melanin contents”. Also, the “reduction in tyrosinase inhibition relative to analog 3” value with mushroom tyrosinase [5] (substrate L-dopa) was found to be 17 fold. The IC50 (usually the concentration that gives 50% inhibition) is 17.6 ± 0.62 µM at mushroom tyrosinase [5] (setting [8]) and 3.82 ± 0.22 µM at mushroom tyrosinase [5] (setting [9]). In addition, the “tyrosinase inhibition, times stronger than kojic acid” value with mushroom tyrosinase [5] (substrate L-tyrosine) is on record as “five times more strongly than kojic acid”. In addition, in series [6], the “effect on stimulator-induced cellular tyrosinase activity” value is “concentration-dependently and significantly reduced”. Also, the “cellular tyrosinase inhibition compared with kojic acid (20 µM)” value in series [6] (analog at 10 µM) was “slightly more strongly than kojic acid”; in series [6] (setting [10]), “stronger inhibitory effects than kojic acid”.
Take `COc1cc(/C=C2\SC(=S)N(C)C2=O)ccc1O` [Analog 4, (Z)-5-(4-Hydroxy-3-methoxybenzylidene)-3-methyl-2-thioxothiazolidin-4-one]: the results for the half-inhibitory concentration (IC50) on mushroom tyrosinase [5] (setting [8]) and at mushroom tyrosinase [5] (setting [9]) were more than 200 µM and 54.8 ± 16.1 µM, respectively. Moreover, in series [7], the “DPPH radical scavenging activity” value was 82%.
`COc1ccc(/C=C2\SC(=S)N(C)C2=O)cc1O` [Analog 5, (Z)-5-(3-Hydroxy-4-methoxybenzylidene)-3-methyl-2-thioxothiazolidin-4-one]: in series [1], the “effect on stimulator-raised in situ intracellular tyrosinase activity (L-dopa staining)” value was “concentration-dependently reduced the stimulator-enhanced intracellular tyrosinase inhibition”. Moreover, the “type of tyrosinase inhibition (Lineweaver–Burk plots)” value at mushroom tyrosinase [2] is “mixed-type inhibitors”. The “cytotoxicity (cell viability)” value in the series with B16F10 cells [3] is recorded as “did not exhibit cytotoxicity at ≤20 µM”. Moreover, the “intracellular melanin contents compared with kojic acid” value with B16F10 cells [4] (20 µM) is reported as “levels similar to those in treatment with kojic acid”. Moreover, the “effect on intracellular melanin contents enhanced by IBMX plus α-MSH” value in the series on B16F10 cells [4] is “significantly reduced the melanin contents”. Also, the concentration for half-maximal inhibition (IC50) was determined as 13.8 ± 2.64 µM at mushroom tyrosinase [5] (setting [8]) and 3.6 ± 0.52 µM on mushroom tyrosinase [5] (setting [9]). Moreover, the “effect on stimulator-induced cellular tyrosinase activity” value in series [6] is “concentration-dependently and significantly reduced”. In addition, the “cellular tyrosinase inhibition compared with kojic acid (20 µM)” value in series [6] (setting [10]) is on record as “stronger inhibitory effects than kojic acid”.
For the compound `COc1cc(/C=C2\SC(=S)N(C)C2=O)cc(OC)c1O` [Analog 6, (Z)-5-(4-Hydroxy-3,5-dimethoxybenzylidene)-3-methyl-2-thioxothiazolidin-4-one], the IC50 was more than 200 µM on mushroom tyrosinase [5] (setting [8]) and 57.4 ± 10.9 µM on mushroom tyrosinase [5] (setting [9]).
Take `CN1C(=O)/C(=C/c2ccc(O)c(Br)c2)SC1=S` [Analog 7, (Z)-5-(3-Bromo-4-hydroxybenzylidene)-3-methyl-2-thioxothiazolidin-4-one]: the results for the 50% inhibitory concentration (IC50) at mushroom tyrosinase [5] (setting [8]) and at mushroom tyrosinase [5] (setting [9]) were more than 200 µM and 33.2 ± 8.42 µM, respectively.
As to `CN1C(=O)/C(=C/c2cc(Br)c(O)c(Br)c2)SC1=S` [Analog 8, (Z)-5-(3,5-Dibromo-4-hydroxybenzylidene)-3-methyl-2-thioxothiazolidin-4-one], the IC50 on mushroom tyrosinase [5] (setting [8]) and on mushroom tyrosinase [5] (setting [9]) was more than 200 µM in each case.
Turning to `O=c1cc(CO)occ1O` [Kojic acid, reference compound], the “decrease of intracellular melanin contents” value in the series on B16F10 cells [4] (20 µM, IBMX plus α-MSH (raised melanin 4.4-fold)) came out at 3.3 fold.
For the compound `O=C1O[C@H]([C@@H](O)CO)C(O)=C1O` [L-Ascorbic acid, reference compound], the “DPPH radical scavenging activity” value in series [7] amounted to 97%.

These data come from publication PMC11206987, “Investigation of the Efficacy of Benzylidene-3-methyl-2-thioxothiazolidin-4-one Analogs with Antioxidant Activities on the Inhibition of Mushroom and Mammal Tyrosinases” (Molecules, 2024).
